Results as given in patent US20130040882A1, “USE OF FIBROBLAST GROWTH FACTOR FRAGMENTS” (NOVARTIS AG, priority 2003, published 2013).
“Also recorded” adds a separate entry of the source.

Experiments:
uterine gene expression = test: Gene expression profiling (HGU133A) in the uterus of ovariectomized monkeys treated with estradiol, tamoxifen or raloxifene; assay type: in vivo, cynomolgus monkeys (Macaca fascicularis)
[1] = tested on: luteinising hormone and follicle-stimulating hormone genes in the pituitary gland; test: Gene expression (HGU133A) in the pituitary gland of ovariectomized monkeys treated with estradiol, tamoxifen or raloxifene; assay type: in vivo, cynomolgus monkeys (Macaca fascicularis); settings: OVX monkeys
Description: Female sexually mature cynomolgus monkeys (Macaca fascicularis obtained from R. C. Hartelust B V, Tilburg, the Netherlands) approximately 48 months old were subjected to surgery (ovarectomy [OVX] or sham) 10 weeks prior to treatment and were treated for parasitic arthropods and helminthes, subjected to a tuberculin testing, and acclimated to the treatment facility for at least 14 days before beginning treatment.
Surgical Procedures. The ovariectomized cynomolgus monkey (Macaca fascicularis), which has been validated as a useful model predictive of outcomes in human clinical trials of estrogen and SERMs (Cline J M et al., Toxicol Pathol. 29:84-90 (2001)), was used as a model of estrogen deficiency. Animals were ovariectomized approximately 10 weeks before the first day of treatment. The ovaries were removed following anesthesia with a combined intramuscular injection of xylazine (Rompun®: 0.4 mL/animal, Bayer Pharma Division Sante Animale, Puteaux, France) and ketamine hydrochloride (Imalgéne®: 0.6 mL/kg, Mérial, Lyon, France). Sham-operated animals were subjected to the same surgical procedure, except for the removal of ovaries.
Ovariectomized and sham-operated animals were divided into groups of 4 and treated as outlined below.
Gene expression was determined in the pituitary and uterus at the end of drug therapy. Tissues to be analyzed (pituitary glands and uterus) were excised, snap frozen in liquid nitrogen, and stored at −80° C. until RNA extraction was performed.
Total RNA was obtained by acid guanidinium isothiocyanate-phenol-chloroform extraction (Trizol; Invitrogen Life Technologies, San Diego, Calif., USA) and purified on an affinity resin column (RNeasy; Qiagen, Hilden, Germany) according to manufacturer instructions. […] Lockhart D J, Dong H, Byrne M C, et al. Nat. Biotechnol. 1996; 14:1675-1680.
Previous studies have proven the validity of cross-species DNA chip analysis (Hacia J G et al. Nat Genet. 18:155-158 (1998)), therefore, the human gene expression probe arrays HGU133A (Affymetrix, Santa Clara, Calif., USA) containing 22,283 probe sets interrogating primarily annotated human genes were used. One GeneChip was used per tissue, per animal. The resulting image files (.dat files) were processed using the Microarray Analysis Suite 5 (MAS5) software (Affymetrix, Inc.). Tab-delimited files were obtained containing data regarding signal intensity (Signal) and categorical expression level measurement (Absolute Call).

[2] = tested on: gene expression in organs; test: Blind monkey trial of three peptides: gene expression profiling of organs on Affymetrix U95 chips; assay type: in vivo, cynomolgus monkeys; settings: 100 μg/animal/day sc, two weeks
[3] = compared with untreated OVX controls

O=C(c1ccc(OCCN2CCCCC2)cc1)c1c(-c2ccc(O)cc2)sc2cc(O)ccc12 [Ralolxifene]
Fold change relative to SHAM control: Cadherin 11, type 2, OB-cadherin (osteoblast) (uterine gene expression; uterus, OVX monkeys): 0.8 fold | Fold change relative to SHAM control: Calcium channel, voltage-dependent, beta 2 subunit (uterine gene expression; uterus, OVX monkeys): 1.5 fold | Fold change relative to SHAM control: Catenin (cadherin-associated protein), alpha-like 1 (uterine gene expression; uterus, OVX monkeys): 1.5 fold | Fold change relative to SHAM control: Dishevelled associated activator of morphogenesis 1 (uterine gene expression; uterus, OVX monkeys): 0.6 fold | Fold change relative to SHAM control: Four and a half LIM domains 2 (uterine gene expression; uterus, OVX monkeys): 0.6 fold | Fold change relative to SHAM control: Integrin, beta 5 (uterine gene expression; uterus, OVX monkeys): 0.9 fold | Fold change relative to SHAM control: LDL receptor adaptor protein (uterine gene expression; uterus, OVX monkeys): 1.4 fold | Fold change relative to SHAM control: LIM and senescent cell antigen-like domains 1 (uterine gene expression; uterus, OVX monkeys): 0.8 fold | Fold change relative to SHAM control: Mitogen-activated protein kinase kinase kinase kinase 4 (uterine gene expression; uterus, OVX monkeys): 1.2 fold | Fold change relative to SHAM control: Phosphatase and tensin homolog (mutated in multiple advanced cancers 1) (uterine gene expression; uterus, OVX monkeys): 0.7 fold | Fold change relative to SHAM control: Phospholipid transfer protein (uterine gene expression; uterus, OVX monkeys): 0.7 fold | Fold change relative to SHAM control: Progesterone receptor (uterine gene expression; uterus, OVX monkeys): 0.6 fold | Fold change relative to SHAM control: Protein tyrosine kinase 9 (uterine gene expression; uterus, OVX monkeys): 0.8 fold | Fold change relative to SHAM control: Secreted frizzled-related protein 1 (uterine gene expression; uterus, OVX monkeys): 0.8 fold | Fold change relative to SHAM control: Secreted frizzled-related protein 4 (uterine gene expression; uterus, OVX monkeys): 0.4 fold | Fold change relative to SHAM control: Wingless-type MMTV integration site family, member 2B (uterine gene expression; uterus, OVX monkeys): 0.8 fold | Fold change relative to SHAM control: Wingless-type MMTV integration site family, member 16 (uterine gene expression; uterus, OVX monkeys): 0.8 fold | Fold change relative to SHAM control: Insulin receptor (uterine gene expression; uterus, OVX monkeys, Table 46): 1.4 fold

C[C@]12CC[C@@H]3c4ccc(O)cc4CC[C@H]3[C@@H]1CC[C@@H]2O [estradiol]
Decrease of FSH transcripts in the pituitary gland [1]: 73.4 fold | Decrease of LH transcripts in the pituitary gland [1]: 16.4 fold | Uterine expression increase: transport genes (uterine gene expression): 2-7 fold | Uterine expression downregulation: thioredoxin interacting protein (uterine gene expression; compared with OVX control): 3 fold | Uterine expression increase: Collagen type 1 alpha 2 (uterine gene expression; compared with OVX controls): 13.2 fold | Uterine expression increase: cell cycle proteins (CDC28 protein kinase regulatory subunit 2) (uterine gene expression; compared with OVX controls): up to 4 fold | Uterine expression increase: collagen type 1 alpha1 (uterine gene expression; compared with OVX controls): 6.6 fold | Uterine expression increase: collagen type III alpha 1 (uterine gene expression; compared with OVX controls): 6.8 fold | Uterine expression increase: collagen type IV alpha 1 (uterine gene expression; compared with OVX controls): 4.3 fold | Uterine expression increase: cysteine-rich angiogenic inducer 61 (uterine gene expression; compared with OVX controls): 3.5 fold | Uterine expression increase: insulin-like GF binding protein 2 (36 kDa) (uterine gene expression; compared with OVX controls): 7.1 fold | Uterine expression increase: insulin-like growth factor binding protein 5 (uterine gene expression; compared with OVX controls): 5.2 fold | Uterine expression increase: latent transforming growth factor beta binding protein 1 (uterine gene expression; compared with OVX controls): 3.6 fold | Uterine expression increase: Dishevelled associated activator of morphogenesis 1 (uterine gene expression; [3]): 3.1 fold | Uterine expression increase: integrin (beta 5) (uterine gene expression; [3]): 1.7 fold | Uterine expression increase: progesterone receptor (uterine gene expression; [3]): 9.8 fold | Uterine expression increase: secreted frizzled-related protein 1 (uterine gene expression; [3]): 7.1 fold | Uterine expression increase: secreted frizzled-related protein 4 (uterine gene expression; [3]): 4.2 fold | Uterine expression increase: wingless-type MMTV integration site (family, member 2B; wnt2B) (uterine gene expression; [3]): 2.6 fold

Peptide 3: leukemia inhibitory factor
Conclusions of the in vivo Profiling by the Data Mining Team: Function/Pathway [2]: Ca^++ bone metabolism; also recorded: Inflammation; also recorded: Immunosuppression; also recorded: Vascular differentiation | Findings by the Data Mining Team: Skeletal muscle (gene with direction) [2]: JunB and haptoglobin and phospholipase A2 typeIIA+
